What was measured:
Experiment in all cases: relative viability (nuclei count vs DMSO), 5 days (fraction); higher = more cells survive
MK-8033 + AZD7762 = compound: Cn1cc(-c2cnc3ccc4ccc(CS(=O)(=O)NCc5ccccn5)cc4c(=O)c3c2)cn1 [MK-8033] + NC(=O)Nc1cc(-c2cccc(F)c2)sc1C(=O)N[C@H]1CCCNC1 [AZD7762] (partner 0.2 µM)
Outline: (§1)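 Lung cancer cell lines in 1536-well plates got either a single drug or a fixed anchor-drug dose together with five library-drug doses (not always all listed) in √10 steps, by pin tool, on the day after seeding. Nuclei were counted after 5 days, and relative viability is the treated-to-vehicle ratio of nuclei counts. Values are medians of duplicate plates.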

Irinotecan + Luminespib = compound: CCc1c2c(nc3ccc(OC(=O)N4CCC(N5CCCCC5)CC4)cc13)-c1cc3c(c(=O)n1C2)COC(=O)[C@]3(O)CC [Irinotecan] + CCNC(=O)c1noc(-c2cc(C(C)C)c(O)cc2O)c1-c1ccc(CN2CCOCC2)cc1 [Luminespib] (partner 0.01 µM)
Outline: as §1

RU-SKI 43 + Tozasertib = compound: CC[C@@H](C)CNCC(=O)N1CCC2=C([C@@H]1COC3=CC=CC(=C3)C)C=CS2 [RU-SKI 43] + Cc1cc(Nc2cc(N3CCN(C)CC3)nc(Sc3ccc(NC(=O)C4CC4)cc3)n2)n[nH]1 [Tozasertib] (partner 0.1 µM)
Outline: as §1

Irinotecan + Tozasertib = compound: CCc1c2c(nc3ccc(OC(=O)N4CCC(N5CCCCC5)CC4)cc13)-c1cc3c(c(=O)n1C2)COC(=O)[C@]3(O)CC [Irinotecan] + Cc1cc(Nc2cc(N3CCN(C)CC3)nc(Sc3ccc(NC(=O)C4CC4)cc3)n2)n[nH]1 [Tozasertib] (partner 0.1 µM)
Outline: as §1

Cell Line | relative viability (MK-8033 + AZD7762; first compound 0.02 µM) | relative viability (MK-8033 + AZD7762; first compound 0.06325 µM) | relative viability (MK-8033 + AZD7762; first compound 0.2 µM) | relative viability (MK-8033 + AZD7762; first compound 0.6325 µM) | relative viability (MK-8033 + AZD7762; first compound 2 µM) | relative viability (Irinotecan + Luminespib; first compound 2 µM) | relative viability (Irinotecan + Luminespib; first compound 6.325 µM) | relative viability (Irinotecan + Luminespib; first compound 20 µM) | relative viability (RU-SKI 43 + Tozasertib; first compound 0.1 µM) | relative viability (RU-SKI 43 + Tozasertib; first compound 0.3162 µM) | relative viability (RU-SKI 43 + Tozasertib; first compound 1 µM) | relative viability (RU-SKI 43 + Tozasertib; first compound 3.162 µM) | relative viability (RU-SKI 43 + Tozasertib; first compound 10 µM) | relative viability (Irinotecan + Tozasertib; first compound 2 µM) | relative viability (Irinotecan + Tozasertib; first compound 6.325 µM) | relative viability (Irinotecan + Tozasertib; first compound 20 µM) | relative viability (Irinotecan + Tozasertib; first compound 0.6325 µM) | relative viability (Irinotecan + Luminespib; first compound 0.6325 µM)
CAL-12T | 0.594 | 0.66 | 0.59 | 0.573 | 0.567 | 0.695 | 0.2 | 0.253 | 0.296 | 0.403 | 0.303 | 0.26 | 0.243 | 0.419 | 0.322 | 0.197 | – | –
NCI-H2126 | 1.06 | 0.993 | 1.02 | 0.942 | 1.02 | 0.773 | 0.379 | 0.167 | 0.817 | 0.917 | 0.962 | 0.854 | 0.74 | 0.813 | 0.46 | 0.206 | – | –
NCI-H522 | 0.831 | 0.748 | 0.809 | 0.881 | 0.97 | 0.645 | 0.468 | 0.495 | 0.566 | 0.544 | 0.581 | 0.537 | 0.524 | 0.502 | 0.526 | 0.486 | 0.506 | –
NCI-H650 | 0.947 | 0.997 | 0.982 | 0.945 | 0.985 | 0.322 | 0.139 | 0.199 | 0.724 | 0.717 | 0.765 | 0.709 | 0.654 | 0.553 | 0.202 | 0.181 | 0.703 | 0.635
SW 900 | 0.575 | 0.487 | 0.564 | 0.621 | 0.498 | 0.387 | 0.366 | 0.465 | 0.671 | 0.553 | 0.54 | 0.45 | 0.512 | 0.528 | 0.439 | 0.485 | 0.379 | 0.203
LK-2 | 0.454 | 0.288 | 0.316 | 0.363 | 0.427 | 0.224 | 0.264 | 0.327 | 0.186 | 0.156 | 0.165 | 0.181 | 0.171 | 0.192 | 0.287 | 0.352 | 0.183 | 0.162
NCI-H2347 | 0.717 | 0.784 | 0.68 | 0.722 | 0.831 | 0.365 | 0.284 | 0.321 | 0.448 | 0.449 | 0.523 | 0.535 | 0.501 | 0.502 | 0.546 | 0.441 | 0.441 | 0.355
PC-14 | 0.357 | 0.296 | 0.351 | 0.302 | 0.354 | 0.326 | 0.321 | 0.252 | 0.635 | 0.522 | 0.7 | 0.554 | 0.471 | 0.51 | 0.19 | 0.174 | – | 0.11
NCI-H1793 | 0.442 | – | 0.331 | 0.413 | 0.328 | 0.193 | 0.192 | 0.262 | 0.333 | 0.321 | 0.344 | 0.324 | 0.281 | 0.345 | 0.217 | 0.219 | – | –
NCI-H2170 | 0.733 | 0.768 | 0.829 | 0.828 | 0.848 | 0.498 | 0.168 | 0.188 | 0.701 | 0.953 | 0.751 | 0.722 | 0.701 | 0.701 | 0.236 | 0.181 | 0.801 | 0.601
LOU-NH91 | 0.816 | 0.624 | 0.76 | 0.807 | 0.814 | 0.323 | 0.301 | 0.28 | 0.659 | 0.646 | 0.672 | 0.702 | 0.6 | 0.533 | 0.358 | 0.222 | 0.568 | 0.371
NCI-H596 | 1.04 | 0.995 | 1.01 | 1.04 | 0.985 | 0.963 | 0.71 | 0.801 | 0.996 | 0.849 | 0.869 | 0.954 | 0.849 | 0.878 | 0.632 | 0.624 | 0.798 | 0.884
LXF-289 | 1.15 | 1.02 | 0.958 | 1.18 | 1.08 | 0.288 | 0.176 | 0.208 | 0.229 | 0.249 | 0.21 | 0.2 | 0.183 | 0.179 | 0.112 | 0.174 | 0.185 | 0.592
NCI-H727 | 0.697 | 0.614 | 0.519 | 0.758 | 0.574 | 0.455 | 0.501 | 0.494 | 0.658 | 0.583 | 0.54 | 0.564 | 0.629 | 0.551 | 0.47 | 0.507 | 0.524 | 0.271
NCI-H1395 | 0.397 | 0.35 | 0.381 | 0.383 | 0.389 | 0.651 | 0.388 | 0.534 | 0.866 | 0.694 | 0.774 | 0.789 | 0.692 | 0.716 | 0.594 | 0.494 | 0.607 | 0.76
NCI-H1993 | 0.657 | 0.679 | 0.584 | 0.529 | 0.407 | 0.745 | 0.667 | 1.58 | 0.566 | 0.569 | 0.585 | 0.588 | 0.564 | 0.71 | 0.639 | 0.644 | 0.582 | 0.784
NCI-H322M | 0.535 | 0.47 | 0.518 | 0.609 | 0.697 | 0.777 | 0.529 | 0.181 | 0.516 | 0.502 | 0.47 | 0.518 | 0.394 | 0.511 | 0.411 | 0.202 | 0.461 | 0.844

From the supplement of paper PMC10307832
